# Publication PMC3359361, “Antimalarial Activity and Mechanisms of Action of Two Novel 4-Aminoquinolines against Chloroquine-Resistant Parasites” (PLoS ONE, 2012)
# Assays:
# [1] = system: P. falciparum 3D7 strain (CQ-sensitive); test: 3H hypoxanthine incorporation, 3D7 strain; format: cell-based; conditions: Plasmodium falciparum
# Excerpt: (§1) Human erythrocytes (A^+) and serum blood group A+ were kindly donated by Center of Hemotherapy and Hemathology of Minas Gerais (HEMOMINAS). Immediately before the tests, ring stage-parasites were synchronized in sorbitol. Synchronized parasites were stained with orange green in pre-dried coverslips then immediately examined under a fluorescent microscope. The suspension was adjusted for parasitemia and hematocrit as described below for each test. The infected red blood cells were distributed in a 96-well microtiter plate (Corning, Santa Clara, CA, EUA) at 180 µL/well, in which 20 µL of the test drugs and controls were previously diluted at different concentrations (400-0.625 ng/mL) in 0.005% DMSO (v/v) (Sigma, USA).
# (§2) The [^3H]-hypoxanthine assay was performed at 1% parasitemia and 1% hematocrit and the level of isotope incorporation was read in a beta-counter (PerkinElmer, Waltham, MA, EUA). The anti-HRPII test was performed at 0.05% parasitemia and 1.5% hematocrit and the HRPII quantification was read at 450 nm in a spectrophotometer (SpectraMax340PC^384, Molecular Devices). […] Curve-fitting was performed using Origin 8.0 software (OriginLab Corporation, Northampton, MA, USA).
# P. berghei, NK65 strain = test: Suppressive parasite growth test in P. berghei infected mice; format: in vivo; conditions: for Time of survival / Percent reduction of parasitemia, day 5 / Percent reduction of parasitemia, day 8 / Percent reduction of parasitemia, day 10: three consecutive days; for Percent reduction of parasitemia, day 5: day 5 post-infection; for Percent reduction of parasitemia, day 8: day 8 post-infection; for Percent reduction of parasitemia, day 10: day 10 post-infection
# Procedure: A suppressive parasite growth test was used with P. berghei, NK65 strain (originally received from the New York University Medical School) infected mice as described previously with some modifications. Briefly, adult Swiss outbred mice (20±2 g weigh) were inoculated with 1×10^5 red blood cells infected with P. berghei, by intraperitoneal route. The infected mice were maintained together for at least 2 h and then divided randomly into groups of 3–5 animals per cage, which were subsequently treated with 25 and 50 mg/kg of each compound diluted in DMSO 3% (v/v) given daily by oral gavage for three consecutive days. […] Blood smears from mouse tails were prepared on days 5, 8 and 10 post-infection and then methanol-fixed, stained with Giemsa and examined microscopically.
# [2] = system: P. falciparum W2 clone (CQ-resistant and mefloquine-sensitive); test: 3H hypoxanthine incorporation, W2 clone; format: cell-based; conditions: Plasmodium falciparum
# Excerpt: as §1, §2
# [3] = system: P. falciparum 3D7 strain (CQ-sensitive); test: ELISA anti-HRPII assay, 3D7 strain; format: cell-based; conditions: Plasmodium falciparum
# Excerpt: as §1, §2
# [4] = system: P. falciparum W2 clone (CQ-resistant and mefloquine-sensitive); test: ELISA anti-HRPII assay, W2 clone; format: cell-based; conditions: Plasmodium falciparum
# Excerpt: as §1, §2
# hemozoin formation = test: Inhibition of hemozoin assay; format: biochemical; conditions: dose-dependent; p<0.05 vs drug-free controls; two experiments in triplicate
# Procedure: The hemozoin inhibition assay was performed as described by Ncokazi et al., (2002) with some modifications. Briefly, 10.1 µL of the aminoquinoline derivatives at different concentrations (40-0.62 mg/mL) and 101.2 µL of the hematin stock solution (1.68 mM in 0.1 M NaOH) were combined in triplicate in a flat-bottomed 96-well plate. The solutions were further mixed and 58.7 µL of acetate solution (12.9 M, pH 5.0) then added to each well. After incubation at 60°C, 80 µL of 30% (v/v) pyridine solution in 20 mM HEPES, pH 7.5, were added at room temperature. The solids formed were resuspended and allowed to settle for 15 min at room temperature. Then, 38 µL of the supernatant were transferred to a new plate and diluted to 250 µL with a 30% (v/v) pyridine solution (20 mM HEPES, pH 7.5). The color reaction was read in a spectophometer at 405 nm and the results were expressed as the concentration of free heme in each well, which was calculated from the standard absorbance curve of a known hemin solution. CQ was used as a positive control and the cut off was determined by the amount of free heme in the drug-free control. Each compound was evaluated in two different experiments.
# [5] = system: monkey kidney cell line (BGM); test: Cytotoxicity by MTT assay, BGM cells; format: cell-based
# Procedure: (§3) The human hepatoma cell line (HepG2) was originally received from the New University of Lisbon, and the monkey kidney cell line (BGM) from the Federal University of Minas Gerais. […] For the in vitro tests, a confluent cell monolayer was trypsinized, washed with culture medium, distributed in a flat-bottomed 96-well plate (5×10^3 cells/well) and incubated for 18 h at 37°C to ensure cell adherence.
# (§4) The cytotoxicity was evaluated with the MTT assay, 3-(4,5-Dimethylthiazol-2-yl)-2,5-diphenyltetrazolium bromide. Briefly, the HepG2 and BGM cell lines were incubated with 20 µL of the compounds at different concentrations (1000-1 µg/mL) for 24 h in a 5% CO2 and air atmosphere at 37°C. For the MTT assay, which evaluates mitochondrial viability, 20 µL of MTT solution (5 mg/mL) were added and the plates were incubated for a further 3 h. After incubation, the supernatant was carefully removed from the wells, followed by the addition of 100 µL DMSO with thorough mixing.
# (§5) The neutral red assay was used to evaluate cell viability by the accumulation of dye in the viable cell lysosome. […] Cell viability was expressed as the percentage of control absorbance obtained in untreated cells after subtracting the absorbance of the appropriate background. Lastly, the minimum lethal dose for 50% of the cells (MLD50) was determined as previously described.
# [6] = system: human hepatoma cell line (HepG2); test: Cytotoxicity by MTT assay, HepG2 cells; format: cell-based
# Procedure: as §3, §4, §5
smiles,measurement,setting,value
"CCN(CC)CCCC(C)Nc1ccnc2cc(Cl)ccc12 (stereo not shown) [CQ, Chloroquine]",IC50,"[1]; 3D7, read-out: IC50 Hypoxanthine, 3D7 (CQ sensitive)",7.4 ± 1.2 nM
same,Time of survival,"P. berghei, NK65 strain; 20 mg/kg daily",>30 days
same,"Percent reduction of parasitemia, day 5","P. berghei, NK65 strain; 20 mg/kg daily",100%
same,"Percent reduction of parasitemia, day 8","P. berghei, NK65 strain; 20 mg/kg daily",100%
same,"Percent reduction of parasitemia, day 10","P. berghei, NK65 strain; 20 mg/kg daily",100%
same,Suppression of parasitemia,"P. berghei, NK65 strain; CQ 20 mg/kg, day not given",100%
same,IC50,"[2]; W2, read-out: IC50 Hypoxanthine, W2 (CQ resistant)",180 nM
same,IC50,"[3]; 3D7, read-out: IC50 HRPII, 3D7 (CQ sensitive)",6.9 ± 0.9 nM
same,IC50,"[4]; W2, read-out: IC50 HRPII, W2 (CQ resistant)",120 nM
"NCCNCCNc1ccnc2cc(Cl)ccc12 [MAQ, N^1-(2-aminoethyl)-N^2-(7-chloroquinol-4-yl)ethane-1,2-diamine]",Inhibition of hemozoin formation in vitro,hemozoin formation,more evident with MAQ than with BAQ or CQ
same,IC50,"[1]; 3D7, dose that inhibits 50% of blood parasites growth, three or four experiments, read-out: IC50 Hypoxanthine, 3D7 (CQ sensitive)",66 ± 5 nM
same,Selectivity index BGM,[5]; MDL50/IC50,384
same,MDL50 BGM,"[5]; monkey, 24 h",100 ± 0.0 µM
same,Activity in vivo (class),"P. berghei, NK65 strain; 25 mg/kg",active
same,Time of survival,"P. berghei, NK65 strain; 25 mg/kg daily, oral gavage",24 ± 1 days
same,"Percent reduction of parasitemia, day 5","P. berghei, NK65 strain; 25 mg/kg daily, oral gavage",91%
same,"Percent reduction of parasitemia, day 8","P. berghei, NK65 strain; 25 mg/kg daily, oral gavage",61%
same,"Percent reduction of parasitemia, day 10","P. berghei, NK65 strain; 25 mg/kg daily, oral gavage",70%
same,Time of survival,"P. berghei, NK65 strain; 50 mg/kg daily, oral gavage",25 ± 1 days
same,"Percent reduction of parasitemia, day 5","P. berghei, NK65 strain; 50 mg/kg daily, oral gavage",95%
same,"Percent reduction of parasitemia, day 8","P. berghei, NK65 strain; 50 mg/kg daily, oral gavage",71%
same,"Percent reduction of parasitemia, day 10","P. berghei, NK65 strain; 50 mg/kg daily, oral gavage",76%
same,Activity in vivo (class),"P. berghei, NK65 strain; 50 mg/kg, days 5, 8 and 10 post-infection",active
same,IC50,"[2]; W2, dose that inhibits 50% of blood parasites growth, three or four experiments, read-out: IC50 Hypoxanthine, W2 (CQ resistant)",320 ± 70 nM
same,Selectivity index HepG2,[6]; MDL50/IC50,1038
same,MDL50 HepG2,"[6]; human, 24 h",270 ± 10 µM
same,IC50,"[3]; 3D7, dose that inhibits 50% of blood parasites growth, three or four experiments, read-out: IC50 HRPII, 3D7 (CQ sensitive)",26 ± 2 nM
same,IC50,"[4]; W2, dose that inhibits 50% of blood parasites growth, three or four experiments, read-out: IC50 HRPII, W2 (CQ resistant)",260 ± 20 nM
